# Earlier results as cited in publication PMC10787790, “Isatin-tethered halogen-containing acylhydrazone derivatives as monoamine oxidase inhibitor with neuroprotective effect” (Scientific Reports, 2024).
# Test system: MAO-B
# Details: printed in Figure 2 (design strategy), no reference given; cited from earlier work
smiles,measurement,value
O=C1Nc2ccc(Cl)cc2/C1=N\NC(=O)c1ccc2c(c1)OCO2 [Compound 2A],IC50,89 nM
